Patent US8343983B2, “Substituted pyrazolo-pyrimidine compounds” (ArQule, Inc., priority 2009, dated 2013)
Where two headings read alike, the source gives them in different places.

Tested on: cancer cells
Experiment: MTS assay: inhibition of cell growth (formazan absorbance at 492 nm after 72 hours with test compound)
Assay type: cell-based
Details: inhibition class
Summary of the method: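 DMEM with 1% FBS; cells seeded at 3000/well and grown 18 h at 37 °C, then exposed to compound for 72 h and to MTS/PMS for 4 h. IC50 is the concentration giving a 50% absorbance drop; grades are % inhibition bands.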

[1] = Homo sapiens, DLD-1 cells, read-out: DLD-1, MTS 72 hours at 10 uM
[2] = Homo sapiens, KATO III cells, read-out: KATO III, MTS 72 hours at 10 uM
[3] = Homo sapiens, MDA-MB-231 cells, read-out: MDA-MB-231, MTS 72 hours at 10 uM
[4] = Homo sapiens, NCI-H1299 cells, read-out: NCI-H1299, MTS 72 hours at 10 uM
[5] = Homo sapiens, PC-3 cells, read-out: PC-3, MTS 72 hours at 10 uM
[6] = PACA-2 cells, read-out: PACA-2, MTS 72 hours at 10 uM

| SMILES | inhibition at 10 µM [1] | inhibition at 10 µM [2] | inhibition at 10 µM [3] | inhibition at 10 µM [4] | inhibition at 10 µM [5] | inhibition at 10 µM [6] |
| --- | --- | --- | --- | --- | --- | --- |
| c1ccc(CN2CCc3n[nH]c4nc(NCc5ccc(-c6ccccc6)cc5)nc2c34)cc1 [Compound 79, 6-benzyl-N-(biphenyl-4-ylmethyl)-2,6,7,8-tetrahydro-1,2,3,5,6-pentaazaacenaphthylen-4-amine] | > 79% | 50 to 79% | 50 to 79% | > 79% | < 50% | < 50% |
| CN1CCN(c2nc3c4c(n[nH]c4n2)CCN3Cc2ccccc2)CC1 [Compound 80, 6-benzyl-4-(4-methylpiperazin-1-yl)-2,6,7,8-tetrahydro-1,2,3,5,6-pentaazaacenaphthylene] | < 50% | < 50% | < 50% | < 50% | < 50% | < 50% |
| CN(CCc1ccccc1)c1nc2c3c(n[nH]c3n1)CCN2Cc1ccccc1 [Compound 81, 6-benzyl-N-methyl-N-(2-phenylethyl)-2,6,7,8-tetrahydro-1,2,3,5,6-pentaazaacenaphthylen-4-amine] | < 50% | < 50% | < 50% | < 50% | < 50% | < 50% |
| COc1cc(CNc2nc3c4c(n[nH]c4n2)CCN3Cc2ccccc2)cc(OC)c1 [Compound 82, 6-benzyl-N-(3,5-dimethoxybenzyl)-2,6,7,8-tetrahydro-1,2,3,5,6-pentaazaacenaphthylen-4-amine] | < 50% | < 50% | < 50% | < 50% | < 50% | < 50% |
| O=C(CN1CCN(c2nc3c4c(n[nH]c4n2)CCN3Cc2ccccc2)CC1)N1CCCC1 [Compound 83, 6-benzyl-4-[4-(2-oxo-2-pyrrolidin-1-ylethyl)piperazin-1-yl]-2,6,7,8-tetrahydro-1,2,3,5,6-pentaazaacenaphthylene] | < 50% | < 50% | < 50% | < 50% | < 50% | < 50% |
| CCCCNc1nc2c3c(n[nH]c3n1)CCN2Cc1ccccc1 [Compound 84, 6-benzyl-N-butyl-2,6,7,8-tetrahydro-1,2,3,5,6-pentaazaacenaphthylen-4-amine] | > 79% | > 79% | > 79% | > 79% | > 79% | > 79% |
| Clc1cncc(Cl)c1N1CCN(c2nc3c4c(n[nH]c4n2)CCN3Cc2ccccc2)CC1 [Compound 85, 6-benzyl-4-[4-(3,5-dichloropyridin-4-yl)piperazin-1-yl]-2,6,7,8-tetrahydro-1,2,3,5,6-pentaazaacenaphthylene] | < 50% | < 50% | 50 to 79% | < 50% | > 79% | < 50% |
| Cc1ccc(C)c(CCNc2nc3c4c(n[nH]c4n2)CCN3Cc2ccccc2)c1 [Compound 86, 6-benzyl-N-[2-(2,5-dimethylphenyl)ethyl]-2,6,7,8-tetrahydro-1,2,3,5,6-pentaazaacenaphthylen-4-amine] | < 50% | 50 to 79% | < 50% | 50 to 79% | < 50% | < 50% |
| Cc1ccccc1CCNc1nc2c3c(n[nH]c3n1)CCN2Cc1ccccc1 [Compound 87, 6-benzyl-N-[2-(2-methylphenyl)ethyl]-2,6,7,8-tetrahydro-1,2,3,5,6-pentaazaacenaphthylen-4-amine] | < 50% | < 50% | < 50% | 50 to 79% | < 50% | < 50% |
| c1ccc(CN2CCc3n[nH]c4nc(N5CCN(Cc6cccnc6)CC5)nc2c34)cc1 [Compound 88, 6-benzyl-4-[4-(pyridin-3-ylmethyl)piperazin-1-yl]-2,6,7,8-tetrahydro-1,2,3,5,6-pentaazaacenaphthylene] | < 50% | > 79% | > 79% | < 50% | > 79% | < 50% |
| CCOC(=O)N1CCN(c2nc3c4c(n[nH]c4n2)CCN3Cc2ccccc2)CC1 [Compound 89, ethyl 4-(6-benzyl-2,6,7,8-tetrahydro-1,2,3,5,6-pentaazaacenaphthylen-4-yl)piperazine-1-carboxylate] | < 50% | < 50% | > 79% | < 50% | > 79% | < 50% |
| c1ccc(CN2CCc3n[nH]c4nc(NCCCN5CCCCC5)nc2c34)cc1 [Compound 90, 6-benzyl-N-(3-piperidin-1-ylpropyl)-2,6,7,8-tetrahydro-1,2,3,5,6-pentaazaacenaphthylen-4-amine] | > 79% | > 79% | > 79% | > 79% | > 79% | > 79% |
| CN(C)CCCNc1nc2c3c(n[nH]c3n1)CCN2Cc1ccccc1 [Compound 91, N′-(6-benzyl-2,6,7,8-tetrahydro-1,2,3,5,6-pentaazaacenaphthylen-4-yl)-N,N-dimethylpropane-1,3-diamine] | 50 to 79% | > 79% | > 79% | < 50% | > 79% | < 50% |
| c1ccc(CN2CCc3n[nH]c4nc(N5CCN(Cc6ccncc6)CC5)nc2c34)cc1 [Compound 92, 6-benzyl-4-[4-(pyridin-4-ylmethyl)piperazin-1-yl]-2,6,7,8-tetrahydro-1,2,3,5,6-pentaazaacenaphthylene] | < 50% | < 50% | < 50% | < 50% | < 50% | < 50% |
| COc1cccc(CNc2nc3c4c(n[nH]c4n2)CCN3Cc2ccccc2)c1 [Compound 93, 6-benzyl-N-(3-methoxybenzyl)-2,6,7,8-tetrahydro-1,2,3,5,6-pentaazaacenaphthylen-4-amine] | < 50% | < 50% | < 50% | < 50% | < 50% | < 50% |
| Fc1cccc(CCNc2nc3c4c(n[nH]c4n2)CCN3Cc2ccccc2)c1 [Compound 94, 6-benzyl-N-[2-(3-fluorophenyl)ethyl]-2,6,7,8-tetrahydro-1,2,3,5,6-pentaazaacenaphthylen-4-amine] | < 50% | < 50% | < 50% | < 50% | < 50% | < 50% |
| c1ccc(CN2CCc3n[nH]c4nc(N5CCN(c6ccccn6)CC5)nc2c34)cc1 [Compound 95, 6-benzyl-4-(4-pyridin-2-ylpiperazin-1-yl)-2,6,7,8-tetrahydro-1,2,3,5,6-pentaazaacenaphthylene] | < 50% | < 50% | < 50% | < 50% | < 50% | < 50% |
| C[C@@H]1CN(c2nc3c4c(n[nH]c4n2)CCN3Cc2ccccc2)C[C@H](C)O1 [Compound 96, 6-benzyl-4-[(2R,6S)-2,6-dimethylmorpholin-4-yl]-2,6,7,8-tetrahydro-1,2,3,5,6-pentaazaacenaphthylene] | < 50% | > 79% | > 79% | < 50% | > 79% | < 50% |
| Brc1ccc(CCNc2nc3c4c(n[nH]c4n2)CCN3Cc2ccccc2)cc1 [Compound 97, 6-benzyl-N-[2-(4-bromophenyl)ethyl]-2,6,7,8-tetrahydro-1,2,3,5,6-pentaazaacenaphthylen-4-amine] | 50 to 79% | < 50% | < 50% | 50 to 79% | < 50% | < 50% |
| COc1ccc2c(CCNc3nc4c5c(n[nH]c5n3)CCN4Cc3ccccc3)c[nH]c2c1 [Compound 98, 6-benzyl-N-[2-(6-methoxy-1H-indol-3-yl)ethyl]-2,6,7,8-tetrahydro-1,2,3,5,6-pentaazaacenaphthylen-4-amine] | < 50% | 50 to 79% | 50 to 79% | 50 to 79% | > 79% | < 50% |
| COc1ccc(CN2CCc3n[nH]c4nc(SC)nc2c34)cc1 [Compound 99, 6-(4-methoxybenzyl)-4-(methylsulfanyl)-2,6,7,8-tetrahydro-1,2,3,5,6-pentaazaacenaphthylene] | < 50% | < 50% | < 50% | < 50% | < 50% | < 50% |
| COc1ccc(CN2CCc3n[nH]c4nc(NCc5ccccc5)nc2c34)cc1 [Compound 100, N-benzyl-6-(4-methoxybenzyl)-2,6,7,8-tetrahydro-1,2,3,5,6-pentaazaacenaphthylen-4-amine] | < 50% | < 50% | < 50% | < 50% | < 50% | < 50% |
